The test system of data set [1] is PANC-1. Nature of the data set: Cytotoxicity against human PANC-1 cells assessed as reduction in cell viability incubated for 24 hrs in nutrient-rich Dulbecco's modified Eagle's medium by WST-8 assay. The data set is classed as functional, cell-based. Particulars: PANC-1, 24 h.
In data set [2] the test system is PANC-1. In words: Preferential cytotoxicity against human PANC-1 cells assessed as reduction in cell viability incubated for 24 hrs in nutrient-deprived medium by WST-8 assay. The data set is classed as functional.
Data set [3] can be described thus: Selectivity index, ratio of IC50 for cytotoxicity against human PANC-1 cells in nutrient-rich Dulbecco's modified Eagle's medium to PC50 for preferential cytotoxicity against human PANC-1 cells in nutrient-deprived medium. Format: toxicity, cell-based.
The subject of data set [4] is PANC-1. In words: Potency index, ratio of pipernonaline PC50 to test compound PC50 for Preferential cytotoxicity against human PANC-1 cells assessed as reduction in cell viability incubated for 24 hrs in nutrient-deprived medium by WST-8 assay. The data set is classed as functional.
The target in data set [5] is RAC-alpha serine/threonine-protein kinase (Homo sapiens) (UniProt P31749). In words: Inhibition of Akt activation in human PANC-1 cells assessed as decrease in Akt phosphorylation at 5 uM incubated for 6 hrs in nutrient-deprived medium by Western blot analysis. The data set is classed as cell-based.
RAC-alpha serine/threonine-protein kinase (Homo sapiens), sequence (P31749 whole entry): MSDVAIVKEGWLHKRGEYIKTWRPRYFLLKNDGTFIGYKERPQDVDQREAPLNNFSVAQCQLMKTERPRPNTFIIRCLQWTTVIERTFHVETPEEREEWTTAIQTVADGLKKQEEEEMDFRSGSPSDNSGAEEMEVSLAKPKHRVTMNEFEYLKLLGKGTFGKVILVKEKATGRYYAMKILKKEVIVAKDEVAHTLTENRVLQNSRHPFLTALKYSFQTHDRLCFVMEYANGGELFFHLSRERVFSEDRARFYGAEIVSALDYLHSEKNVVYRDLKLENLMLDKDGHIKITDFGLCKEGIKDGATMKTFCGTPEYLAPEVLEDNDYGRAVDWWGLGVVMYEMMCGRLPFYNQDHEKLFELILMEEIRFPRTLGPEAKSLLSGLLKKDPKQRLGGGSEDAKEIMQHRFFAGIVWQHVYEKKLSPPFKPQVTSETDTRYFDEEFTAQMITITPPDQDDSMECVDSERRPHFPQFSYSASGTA
Data set [6] has the same target. Nature of the data set: Inhibition of Akt activation in human PANC-1 cells assessed as effect on total Akt level at 1.25 to 5 uM incubated for 6 hrs in nutrient-deprived medium by Western blot analysis. The data set is classed as cell-based. The conditions noted are these: dose 1.25-5 µM.
For data set [7] the target is unchanged. In words: Inhibition of Akt activation in human PANC-1 cells assessed as effect on mTOR level at 1.25 to 5 uM incubated for 6 hrs in nutrient-deprived medium by Western blot analysis. Format: cell-based. Particulars: dose 1.25-5 µM. On the technique in general: Immunoblotting shows a protein as a band on a membrane.
For data set [8] the target is unchanged. In words: Inhibition of Akt activation in human PANC-1 cells assessed as effect on Atg3 level at 1.25 to 5 uM incubated for 6 hrs in nutrient-deprived medium by Western blot analysis. Format: cell-based. The conditions noted are these: dose 1.25-5 µM.
The target is the same in data set [9]. In words: Inhibition of Akt activation in human PANC-1 cells assessed as effect on Atg7 level at 1.25 to 5 uM incubated for 6 hrs in nutrient-deprived medium by Western blot analysis. The data set is classed as cell-based. Particulars: dose 1.25-5 µM.
The target is the same in data set [10]. Nature of the data set: Inhibition of Akt activation in human PANC-1 cells assessed as upregulation of LC3-II level at 1.25 to 5 uM incubated for 6 hrs in nutrient-deprived medium by Western blot analysis. The data set is classed as cell-based. Particulars: dose 1.25-5 µM.
Data set [11] deals with PANC-1. In words: Inhibition of cell migration in human PANC-1 cells assessed as reduction in migration velocity at 20 uM measured every 15 min for 24 hrs in nutrient-rich Dulbecco's modified Eagle's medium by quantitative real-time cell migration assay. Format: functional.
The test system of data set [12] is PANC-1. In words: Inhibition of cell migration in human PANC-1 cells assessed as reduction in cell migration at 20 uM measured at 12 hrs in nutrient-rich Dulbecco's modified Eagle's medium by quantitative real-time cell migration assay relative to control. The data set is classed as functional.
Data set [13] relates to PANC-1. In words: Inhibition of cell migration in human PANC-1 cells assessed as reduction in cell migration at 20 uM measured at 18 hrs in nutrient-rich Dulbecco's modified Eagle's medium by quantitative real-time cell migration assay relative to control. Format: functional.

As usually defined, the IC50 is the concentration needed to halve the response being measured. For orientation: inhibition means how much of the control response was suppressed.

SMILES strings stand for the structures. Activity calls are given as the source filed them. The calls are words filed in the database; no cut-off is given here.

For the compound `O=C(/C=C/CCCC/C=C/c1ccc2c(c1)OCO2)N1CCCCC1` [PIPERNONALINE], the IC50 in data set [1] worked out at 54.9 µM. Further, the PC50 in data set [2] was found to be 7.2 µM. In data set [3], the selectivity ratio was 7.6.

Regarding `O=C(CCCCCCCCc1ccc(C(F)(F)F)cc1)N1CCCCC1`, the IC50 in [1] is 54 µM. Further, the PC50 in [2] turned out to be 3.2 µM. Moreover, in [3], the selectivity ratio was found to be 16.9.

With `COc1ccc(CCCCCCCCC(=O)N2CCCCC2)cc1`, the concentration for half-maximal inhibition (IC50) in data set [1] came to 89.3 µM. Also, the PC50 in data set [2] was found to be 3.8 µM. In addition, the selectivity ratio in data set [3] came out at 23.5.

On to `O=C(CCCCCCCc1ccccc1)N1CCCCC1`, for which, in data set [1], the IC50 is more than 100 µM. In addition, the PC50 in [2] is 6.9 µM. Moreover, the selectivity ratio in data set [3] is more than 14.5.

`O=C(CCCCCCCCc1ccc2ccccc2c1)N1CCCCC1`: the half-inhibitory concentration (IC50) in [1] turned out to be 87 µM. The PC50 in data set [2] came out at 6 µM. Besides, the selectivity ratio in [3] came to 14.5.

Take `O=C(CCCOCCCCc1ccccc1)N1CCCCC1`: in data set [1], the IC50 is more than 100 µM. The PC50 in data set [2] turned out to be 26.6 µM. In addition, in data set [3], the selectivity ratio is more than 3.8.

In the case of `O=C(CCCCCC/C=C/c1ccccc1)N1CCCCC1`, in [1], the IC50 was more than 100 µM. For the same compound, in data set [2], the PC50 is 9.6 µM. Also, the selectivity ratio in data set [3] was found to be 7.4.

`S=C(CCCCCCCCc1ccccc1)N1CCCCC1`: in data set [1], the IC50 was more than 100 µM. The PC50 in [2] is 2.2 µM. Besides, the selectivity ratio in [3] is more than 45.5.

Turning to `O=C(CCCCCCCCc1ccccc1)N1CCCCC1`, the IC50 in data set [1] is more than 100 µM. In data set [2], the PC50 stood at 1.08 µM. Also, the selectivity ratio in data set [3] is more than 90.9. The Ratio in data set [4] was found to be 7. In addition, the inhibition result in data set [5] and in data set [10] was “Active” in each case. Moreover, the inhibition entry in [6], in data set [7], in data set [8] and in data set [9] was “inactive” in each case. Moreover, the Activity in data set [11] was 10.6 um2/s. The inhibition at 20 µM in [12] was 50%; in [13], 78%.

For the compound `O=C(/C=C/CCCCCCc1ccccc1)N1CCC(O)CC1`, the IC50 in data set [1] is more than 100 µM. In addition, in data set [2], the PC50 is 9.4 µM. Moreover, the selectivity ratio in [3] was more than 10.6.

On to `O=C(CCCCCCCCc1ccccc1F)N1CCCCC1`, for which, in data set [1], the IC50 was 98.9 µM. In addition, in [2], the PC50 is 4.6 µM. Further, in data set [3], the selectivity ratio was determined as 21.5.

Regarding `O=C(CCCCCCCCc1cccc(F)c1)N1CCCCC1`, in data set [1], the IC50 was more than 100 µM. For the same compound, the PC50 in data set [2] turned out to be 6.6 µM. In [3], the selectivity ratio is more than 15.2.

On to `O=C(CCCCCCCCCCc1ccccc1)N1CCCCC1`, for which, in [1], the IC50 is more than 100 µM. Further, the PC50 in [2] came out at 6.6 µM. The selectivity ratio in data set [3] was more than 15.2.

Regarding `Cc1ccc(CCCCCCCCC(=O)N2CCCCC2)cc1`, the IC50 in [1] is more than 100 µM. Also, the PC50 in [2] turned out to be 4.1 µM. In addition, the selectivity ratio in [3] was more than 24.4.

On to `O=C(CCCCCCCCc1ccc(O)cc1)N1CCCCC1`, for which the IC50 in data set [1] was more than 100 µM. Besides, in [2], the PC50 was determined as 7.8 µM. Besides, the selectivity ratio in [3] was more than 12.8.

For `O=C(CCCCCCCCCc1ccccc1)N1CCCCC1`, in [1], the IC50 is more than 100 µM. Besides, the PC50 in [2] was determined as 6.5 µM. The selectivity ratio in data set [3] is more than 15.4.

With `Nc1ccn([C@@H]2O[C@H](CO)[C@@H](O)C2(F)F)c(=O)n1` [GEMCITABINE], the IC50 in data set [1] is more than 100 µM. The PC50 in data set [2] is more than 100 µM.

For the compound `O=C(/C=C/CCCCCCc1ccccc1)Nc1ccccc1`, in data set [1], the concentration for half-maximal inhibition (IC50) is more than 100 µM. In addition, the PC50 in [2] turned out to be 8.8 µM. The selectivity ratio in data set [3] is more than 11.4.

Turning to `O=C(CCCCCCc1ccccc1)N1CCCCC1`, in [1], the IC50 was more than 100 µM. Also, the PC50 in [2] was 7.1 µM. For the same compound, in [3], the selectivity ratio was more than 14.1.

Regarding `O=C(/C=C/CCCCC#Cc1ccccc1)N1CCCCC1`, the IC50 in data set [1] was more than 100 µM. Further, in data set [2], the PC50 turned out to be 2.2 µM. Also, the selectivity ratio in data set [3] is more than 45.5.

Consider `O=C(/C=C/CCCCCCc1ccccc1)N1CCCC1`, for which the IC50 in data set [1] is more than 100 µM. In addition, the PC50 in data set [2] worked out at 4.1 µM. Further, in data set [3], the selectivity ratio was more than 24.4.

Consider `O=C(/C=C/CCCCCCc1ccccc1)N1CCCCCC1`, for which, in data set [1], the IC50 is more than 100 µM. The PC50 in data set [2] is 3.1 µM. Further, the selectivity ratio in data set [3] was more than 32.3.

Take `O=C(/C=C/CCCCCCc1ccccc1)N[C@H]1CC[C@H](O)CC1`: the IC50 in [1] was more than 100 µM. Moreover, the PC50 in data set [2] was 52.1 µM. In addition, the selectivity ratio in data set [3] was more than 1.9.

For `O=C(CCCCCCCCc1cccc(Cl)c1)N1CCCCC1`, the IC50 in data set [1] was more than 100 µM. In addition, the PC50 in data set [2] worked out at 4.3 µM. Also, in data set [3], the selectivity ratio is more than 23.3.

On to `O=C(/C=C/CCCCCCc1ccccc1)N1CCOCC1`, for which the IC50 in data set [1] was more than 100 µM. Further, the PC50 in [2] came out at 12.5 µM. For the same compound, the selectivity ratio in [3] is more than 8.

`O=C(CCCCCCCCc1ccc(F)cc1)N1CCCCC1`: the IC50 in data set [1] came to 99.8 µM. Besides, the PC50 in [2] was found to be 3.5 µM. For the same compound, the selectivity ratio in data set [3] was 28.5.

As for `N#Cc1ccc(CCCCCCCCC(=O)N2CCCCC2)cc1`, in data set [1], the IC50 was more than 100 µM. Further, the PC50 in [2] came to 4 µM. Further, in [3], the selectivity ratio is more than 25.

On to `O=C(CCCCCCCCC1CCCCC1)N1CCCCC1`, for which, in data set [1], the IC50 is more than 100 µM. Moreover, the PC50 in [2] is 12 µM. In addition, the selectivity ratio in [3] is more than 8.3.

For `O=C(CCCCCCCCc1ccccc1Cl)N1CCCCC1`, in data set [1], the IC50 is more than 100 µM. Also, in [2], the PC50 stood at 3.6 µM. Further, in [3], the selectivity ratio is more than 27.8.

Consider `O=C(CCCCCCCCc1ccc(Cl)cc1)N1CCCCC1`, for which the IC50 in data set [1] was found to be 65.5 µM. For the same compound, the PC50 in data set [2] is 3.3 µM. Further, the selectivity ratio in [3] worked out at 19.8.

Regarding `O=C(/C=C/CCCCCCc1ccccc1)NCc1ccccc1`, the IC50 in data set [1] was more than 100 µM. The PC50 in data set [2] was 6.1 µM. Also, the selectivity ratio in data set [3] is more than 16.4.

On to `O=C(/C=C\CCCCCCc1ccccc1)N1CCCCC1`, for which the IC50 in data set [1] is more than 100 µM. The PC50 in [2] amounted to 2.3 µM. Also, the selectivity ratio in [3] is more than 43.5.

`O=C(/C=C/CCCCCCc1ccccc1)N1CCCCC1`: the IC50 in data set [1] was more than 100 µM. Moreover, in data set [2], the PC50 was 1.7 µM. The selectivity ratio in [3] is more than 58.8.

(Values after ChEMBL document CHEMBL5236566, “Design and synthesis of novel pipernonaline derivatives as anti-austerity agents against human pancreatic cancer PANC-1 cells” (Bioorg Med Chem, 2022).)
